Where “and” joins values, the source holds several entries; their conditions need not be identical. Identical values can stand only once.
Tested on: oral mucositis induced by cis-platin 5 mg/kg and radiation 35 Gy (left cheek pouch)
Test: Oral mucositis induced by a combination of cisplatin and acute radiation in hamsters, mucositis scoring (Example 4, SCI-04)
Type: in vivo, Syrian Golden Hamsters
Set-up: key to Mucositis score, day 6 / Mucositis score, day 8: 0: Pouch completely healthy. No erythema or vasodilation.; 1: Light to severe erythema and vasodilation. No erosion of mucosa.; 2: Severe erythema and vasodilation. Erosion of superficial aspects of mucosa leaving denuded areas. Decreased stippling of mucosa.; 3: Formation of off-white ulcers in one or more places. Ulcers may have a yellow/gray due to pseudomembrane. Cumulative size of ulcers should equal about ¼ of the pouch. Severe erythema and vasodilation.; 4: Cumulative seize of ulcers should equal about ½ of the pouch. Loss of pliability. Severe erythema and vasodilation.; 5: Virtually all of pouch is ulcerated. Loss of pliability (pouch can only partially be extracted from mouth); key to peak mean mucositis score: standard six-point oral mucositis scale; ulceration = score ≥3
Conditions: for % Days >=3 / Days <3 / Days >=3: qd, sc, Days −1 to 20; for Days >=3: animal days with mucositis score of three or more
Experimental: Forty Golden Syrian hamsters were prospectively randomized into four equally sized groups. Mucositis was induced on the left cheek pouch mucosa of golden Syrian hamsters by a single dose of cis-platin at 5 mg/kg given on day −1, and a single dose of radiation administered on day 0 at a dose of 35Gy. Beginning on day −1 and continuing once daily until day 20, SCV-07 was given by sub-cutaneous injection at doses of 10 μg/kg, 100 μg/kg or 1 mg/kg in a volume of 100 μL. Animals' activity and weight were evaluated daily. Beginning on day 6 and continuing on alternate days for the duration of the study, oral mucositis was evaluated using a standard scoring six point scale. The number of days of ulcerative mucositis was evaluated using a Chi-squared test of scores of ≧3 throughout the study, and the individual daily group scores were assessed with a Rank Sum Test.
The chemo-radiation model of oral mucositis in hamsters, developed by the Principal Investigator, has proven to be an accurate, efficient and cost-effective technique to provide a preliminary evaluation of anti-mucositis compounds. In this model, hamsters received a single dose of cis-platin at 5 mg/kg on day −1, followed by a single dose of radiation of 35 Gy to the left cheek pouch on day 0, rather than the single dose of 40 Gy on day 0 that is used in acute radiation studies. The course of mucositis in this model is very similar to the acute radiation model and results in peak mucositis scores approximately 16-18 days following radiation.
Hamsters received a single dose of cis-platin at 5 mg/kg on day −1 by intra-peritoneal injection, followed by a single dose of radiation of 35 Gy to the left cheek pouch on day 0. This was accomplished by anesthetizing the animals and everting the left buccal pouch, while protecting the rest of the animal's bodies with a lead shield. Test materials were given by sub-cutaneous injection once daily as detailed in Table 13. Mucositis was evaluated clinically starting on day 6, and continuing on alternate days until day 28. Test articles were given as from day −1 to day 20.
The grade of mucositis was scored, beginning day 6, and for every second day thereafter, through and including day 28. The effect on mucositis of each drug treatment compared to placebo was assessed according to the following parameters:
On each evaluation day, the number of animals with a blinded mucositis score of ≧3 in each drug treatment group was compared to the control group. Differences were compared on a cumulative basis and statistical significance was determined by chi-square analysis. Efficacy, in this analysis, is defined by a significant reduction in the number of days that a group of animals had ulcerations (scores 3) when compared to the control group.
For each evaluation day the scores of the control group were compared to those of the treated groups using non-parametric rank sum analysis. Treatment success was considered as a statistically significant lowering of scores in the treated group on 2 or more days from day 6 to day 28.
Forty (40) male Syrian Golden Hamsters were given an intraperitoneal injection of 5 mg/kg Cisplatin on day −1. On day 0 all animals were given an acute radiation dose of 35 Gy directed to their left buccal cheek pouch. This was accomplished by anesthetizing the animals and everting the left buccal pouch, while protecting the rest of the animals with a lead shield. Test materials were given by subcutaneous injection once daily as detailed in Table 13. Mucositis was evaluated clinically starting on Day 6, and continued on alternate days until day 28.
In this study, mucositis was induced with a combination of Cis-platin and radiation. Cis-platin was given as a single injection (IP) of 5 mg/kg on day −1. Radiation was given as a single focal dose of 35 Gy on day 0. Radiation was generated with a Philips 160 kVp (kilovolt potential) (18.75-ma) X-ray source at a focal distance of 30 cm, with a 3.0 mm hardened Al filtration system. […]

[1] = printed 100 ug/kg on days -1 to 20 (second such statement, third treated group)

N[C@H](CCC(=O)N[C@@H](Cc1c[nH]c2ccccc12)C(=O)O)C(=O)O [SCV-07, γ-D-glutamyl-L-tryptophan]
P, daily mucositis scores (Mann-Whitney rank sum) vs saline controls (10 ug/kg days -1 to 20, day 22): 0.010
P, daily mucositis scores (Mann-Whitney rank sum) vs saline controls (10 ug/kg days -1 to 20, day 24): 0.022
P, daily mucositis scores (Mann-Whitney rank sum) vs saline controls (10 ug/kg days -1 to 20, day 26): 0.015
P, daily mucositis scores (Mann-Whitney rank sum) vs saline controls (10 ug/kg days -1 to 20, day 28): < 0.001
% of animal days with a mucositis score of 3 or higher (10 ug/kg from day -1 to day 20): 34.2%
P, chi-squared test vs controls, days with score of 3 or higher (10 ug/kg from day -1 to day 20): < 0.001
day of peak mean mucositis score (10 ug/kg from day -1 to day 20): 16
peak mean mucositis score (10 ug/kg from day -1 to day 20): 2.9
% Days >=3 (10 ug/kg): 34.2%
Days <3 (10 ug/kg): 158
Days >=3 (10 ug/kg): 82
P, daily mucositis scores (Mann-Whitney rank sum) vs saline controls (100 ug/kg days -1 to 20, day 6): 0.015
P, daily mucositis scores (Mann-Whitney rank sum) vs saline controls (100 ug/kg days -1 to 20, day 22): 0.003
P, daily mucositis scores (Mann-Whitney rank sum) vs saline controls (100 ug/kg days -1 to 20, day 24): 0.005
P, daily mucositis scores (Mann-Whitney rank sum) vs saline controls (100 ug/kg days -1 to 20, day 26): < 0.001
P, daily mucositis scores (Mann-Whitney rank sum) vs saline controls (100 ug/kg days -1 to 20, day 28): < 0.001
peak mean mucositis score (100 ug/kg from day -1 to day 20): 2.8
% of animal days with a mucositis score of 3 or higher (100 ug/kg on days -1 to 20): 29.2%
P, chi-squared test vs controls, days with score of 3 or higher (100 ug/kg on days -1 to 20): < 0.001
% Days >=3 (100 ug/kg): 29.2%
Days <3 (100 ug/kg): 170
Days >=3 (100 ug/kg): 70
P, daily mucositis scores (Mann-Whitney rank sum) vs saline controls (1 mg/kg days -1 to 20, day 6): 0.015
P, daily mucositis scores (Mann-Whitney rank sum) vs saline controls (1 mg/kg days -1 to 20, day 20): 0.029
P, daily mucositis scores (Mann-Whitney rank sum) vs saline controls (1 mg/kg days -1 to 20, day 22): 0.012
P, daily mucositis scores (Mann-Whitney rank sum) vs saline controls (1 mg/kg days -1 to 20, day 24): 0.001
P, daily mucositis scores (Mann-Whitney rank sum) vs saline controls (1 mg/kg days -1 to 20, day 26): 0.003
P, daily mucositis scores (Mann-Whitney rank sum) vs saline controls (1 mg/kg days -1 to 20, day 28): < 0.001
day of peak mean mucositis score (1 mg/kg from day -1 to day 20): 16
peak mean mucositis score (1 mg/kg from day -1 to day 20): 3.2
% Days >=3 (1 mg/kg): 30.8%
Days <3 (1 mg/kg): 166
Days >=3 (1 mg/kg): 74
Mucositis score, day 6 (Group 2 (SCV-07 10 μg/kg, day -1 to day 20), individual animal scores, two scores per animal, day 6): 0 (14×) and 1 (6×)
Mucositis score, day 8 (Group 2 (SCV-07 10 μg/kg, day -1 to day 20), individual animal scores, two scores per animal, day 8): 0 (18×) and 1 (2×)
severe mucositis, % of animals days evaluated (SCV-07 treated animals (all test groups), 50% in vehicle controls): approximately 30%
% of animal days with a mucositis score of 3 or higher [1]: 30.8%
P, chi-squared test vs controls, days with score of 3 or higher [1]: < 0.001
